Data on 19 compounds can be found in patent US20230009626A1 (ICHNOS SCIENCES S.A., priority 2018, published 2023).

Counter-ions that a name gives are not always drawn.

The term inhibition denotes how much of the control response was suppressed. For orientation: IC50 means the midpoint of a concentration-inhibition curve. A lower IC50 goes with higher potency.

The target of this assay is HPK1 (MAP4K1) (Homo sapiens, UniProt Q92918). Briefly: FRET Assay for HPK1 (MAP4K1): one step binding assay, displacement of labeled tracer. The following applies: for inhibition at 1 µM: 1 μM compound; for inhibition at 1 µM / inhibition at 10 µM: FRET ratio 665/620, percent of control; for inhibition at 10 µM: 10 μM compound; for IC50: dose response curve, nonlinear regression. Summed up: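 TR-FRET tracer-displacement binding assay. GST-tagged HPK1 (10 nM) and Eu-anti-GST antibody (4 nM) were pre-incubated with compound on ice for 15 min in 50 mM HEPES pH 7.5, 10 mM MgCl2, 1 mM EGTA, 0.01% Brij-35 (3% DMSO final). Kinase Tracer 222 (20 nM) was then added for 1 h at room temperature. IC50 came from nonlinear regression of percent of control; percent inhibition was also given at 1.0 and 10.0 μM.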
Sequence of HPK1 (MAP4K1) (Q92918 whole entry): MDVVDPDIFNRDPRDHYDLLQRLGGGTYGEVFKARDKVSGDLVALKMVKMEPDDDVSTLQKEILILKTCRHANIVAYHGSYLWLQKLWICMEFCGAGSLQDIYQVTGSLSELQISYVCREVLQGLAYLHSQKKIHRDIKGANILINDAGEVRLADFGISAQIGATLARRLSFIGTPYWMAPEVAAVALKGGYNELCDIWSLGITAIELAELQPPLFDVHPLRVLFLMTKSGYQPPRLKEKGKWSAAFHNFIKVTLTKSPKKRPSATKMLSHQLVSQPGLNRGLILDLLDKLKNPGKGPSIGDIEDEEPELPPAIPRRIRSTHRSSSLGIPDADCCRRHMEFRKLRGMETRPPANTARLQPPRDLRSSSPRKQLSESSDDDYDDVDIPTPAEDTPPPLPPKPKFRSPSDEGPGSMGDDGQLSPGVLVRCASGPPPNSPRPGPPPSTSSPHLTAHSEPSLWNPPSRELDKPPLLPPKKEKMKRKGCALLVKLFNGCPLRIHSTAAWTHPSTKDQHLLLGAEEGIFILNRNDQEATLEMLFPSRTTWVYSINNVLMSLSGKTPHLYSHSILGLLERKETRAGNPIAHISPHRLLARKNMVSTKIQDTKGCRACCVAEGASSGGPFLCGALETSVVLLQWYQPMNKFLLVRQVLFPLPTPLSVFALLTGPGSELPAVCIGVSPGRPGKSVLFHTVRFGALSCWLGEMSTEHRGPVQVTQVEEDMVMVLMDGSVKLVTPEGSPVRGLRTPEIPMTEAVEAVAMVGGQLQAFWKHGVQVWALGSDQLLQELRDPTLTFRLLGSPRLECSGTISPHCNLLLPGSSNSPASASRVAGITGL

As for `C/C(Nc1cc(C2CC2)n(C)n1)=C1/C(=O)Nc2cnc(-c3cnccc3C)cc21` [Example 152, (Z)-3-(1-((5-Cyclopropyl-1-methyl-1H-pyrazol-3-yl)amino)ethylidene)-5-(4-methylpyridin-3-yl)-1H-pyrrolo[2,3-c]pyridin-2(3H)-one], the inhibition at 1 µM came to 74.3%, the inhibition at 10 µM came to 70.4% and the IC50 was under 50 nM.

As to `CCn1nc(N/C(C)=C2\C(=O)Nc3cnc(-c4c(C)cccc4F)cc32)cc1C` [Example 212, (Z)-3-(1-((1-Ethyl-5-methyl-1H-pyrazol-3-yl)amino)ethylidene)-5-(2-fluoro-6-methylphenyl)-1H-pyrrolo[2,3-c]pyridin-2(3H)-one], the inhibition at 1 µM came out at 63.1%, the inhibition at 10 µM was determined as 74.4% and the IC50 was under 50 nM.

As for `C/C(Nc1ccn(CC2(O)CC2)n1)=C1/C(=O)Nc2cnc(-c3cnccc3C)cc21` [Example 168, (Z)-3-(1-((1-((1-Hydroxycyclopropyl)methyl)-1H-pyrazol-3-yl)amino)ethylidene)-5-(4-methylpyridin-3-yl)-1H-pyrrolo[2,3-c]pyridin-2(3H)-one], the inhibition at 1 µM came out at 67.6%, the inhibition at 10 µM came out at 76.7% and the IC50 was under 50 nM.

For `C/C(Nc1ccn(C)n1)=C1/C(=O)Nc2ccc(-c3cnccc3C)cc21` [Example 100, (Z)-3-(1-((1-Methyl-1H-pyrazol-3-yl)amino)ethylidene)-5-(4-methylpyridin-3-yl)indolin-2-one], the inhibition at 1 µM was determined as 72.8%, the inhibition at 10 µM is 77% and the IC50 was under 50 nM.

Take `COc1cccc(F)c1-c1cc2c(cn1)NC(=O)/C2=C(/C)Nc1cnn(C(C)(C)C#N)c1` [Example 82, (Z)-2-(4-((1-(5-(2-Fluoro-6-methoxyphenyl)-2-oxo-1H-pyrrolo[2,3-c]pyridin-3(2H)-ylidene)ethyl)amino)-1H-pyrazol-1-yl)-2-methylpropanenitrile]: the inhibition at 1 µM stood at 70.6%, the inhibition at 10 µM turned out to be 79.9% and the IC50 is under 50 nM.

In the case of `COc1cccc(F)c1-c1cc2c(cn1)NC(=O)/C2=C(/C)NC1CCNCC1` [Example 72, (Z)-5-(2-Fluoro-6-methoxyphenyl)-3-(1-(piperidin-4-ylamino)ethylidene)-1H-pyrrolo[2,3-c]pyridin-2(3H)-one trihydrochloride], the inhibition at 1 µM was determined as 39.8% and the inhibition at 10 µM was 68.6%.

As for `C/C(Nc1ccn(C)n1)=C1/C(=O)Nc2cnc(-c3cccnc3C)cc21` [Example 162, (Z)-3-(1-((1-Methyl-1H-pyrazol-3-yl)amino)ethylidene)-5-(2-methylpyridin-3-yl)-1H-pyrrolo[2,3-c]pyridin-2(3H)-one], the inhibition at 1 µM came to 76.2%, the inhibition at 10 µM is 92.9% and the IC50 lay in the range of 50 to 100 nM.

In the case of `C/C(Nc1cnn(C)c1)=C1/C(=O)Nc2cnc(-c3cc(C#N)ccc3C)cc21` [Example 187, (Z)-4-Methyl-3-(3-(1-((1-methyl-1H-pyrazol-4-yl)amino)ethylidene)-2-oxo-2,3-dihydro-1H-pyrrolo[2,3-c]pyridin-5-yl)benzonitrile], the inhibition at 1 µM is 66.4% and the inhibition at 10 µM was 19.6%.

As to `C/C(Nc1cnn(C(C)C)c1)=C1/C(=O)Nc2cnc(-c3cnccc3C)cc21` [Example 89, (Z)-3-(1-((1-Isopropyl-1H-pyrazol-4-yl)amino)ethylidene)-5-(4-methylpyridin-3-yl)-1H-pyrrolo[2,3-c]pyridin-2(3H)-one], the inhibition at 1 µM was 77.3%, the inhibition at 10 µM turned out to be 76% and the IC50 was under 50 nM.

Take `COc1cccc(F)c1-c1ccc2c(c1)/C(=C(\C)Nc1ccc(N3CCNCC3)cc1)C(=O)N2` [Example 8, (Z)-5-(2-Fluoro-6-methoxyphenyl)-3-(1-((4-(piperazin-1-yl)phenyl)amino)ethylidene)indolin-2-one]: the inhibition at 1 µM worked out at 84.8%, the inhibition at 10 µM came to 83.8% and the IC50 is under 50 nM.

Consider `C/C(Nc1cc2n(n1)CC(=O)N(C)C2)=C1/C(=O)Nc2cnc(-c3cnccc3C)cc21` [Example 126, (Z)-5-Methyl-2-((1-(5-(4-methylpyridin-3-yl)-2-oxo-1H-pyrrolo[2,3-c]pyridin-3(2H)-ylidene)ethyl)amino)-4,5-dihydropyrazolo[1,5-a]pyrazin-6(7H)-one], for which the inhibition at 1 µM came to 82.4% and the IC50 is under 50 nM.

For `C/C(Nc1nn(C)c2ccccc12)=C1/C(=O)Nc2cnc(-c3cnccc3C)cc21` [Example 175, (Z)-3-(1-((1-Methyl-1H-indazol-3-yl)amino)ethylidene)-5-(4-methylpyridin-3-yl)-1H-pyrrolo[2,3-c]pyridin-2(3H)-one], the inhibition at 1 µM worked out at 72.6% and the IC50 was under 50 nM.

For `COc1cccc(F)c1-c1ccc2c(c1)/C(=C(\C)Nc1ccc(N3CCOCC3)cc1)C(=O)N2` [Example 13, (Z)-5-(2-Fluoro-6-methoxyphenyl)-3-(1-((4-morpholinophenyl)amino)ethylidene)indolin-2-one], the inhibition at 1 µM came out at 73.3% and the IC50 lay within 50 to 100 nM.

With `C/C(Nc1cnn(C)c1)=C1/C(=O)Nc2cc(C#N)c(-c3cnccc3C)cc21` [Example 151, (Z)-3-(1-((1-Methyl-1H-pyrazol-4-yl)amino)ethylidene)-5-(4-methylpyridin-3-yl)-2-oxoindoline-6-carbonitrile], the inhibition at 1 µM stood at 85.2%, the inhibition at 10 µM was 65.2% and the IC50 was under 50 nM.

Take `COc1cccc(F)c1-c1cc2c(cc1F)NC(=O)/C2=C(/C)Nc1cnn(C)c1` [Example 26]: the inhibition at 1 µM was 88.8%, the inhibition at 10 µM turned out to be 93.5% and the IC50 was under 50 nM.

For the compound `C/C(Nc1cnn([C@H](C)C#N)c1)=C1/C(=O)Nc2cnc(-c3cnccc3C)cc21` [Example 160, (R,Z)-2-(4-((1-(5-(4-Methylpyridin-3-yl)-2-oxo-1H-pyrrolo[2,3-c]pyridin-3(2H)-ylidene)ethyl)amino)-1H-pyrazol-1-yl)propanenitrile], the inhibition at 1 µM turned out to be 85%, the inhibition at 10 µM is 78.4% and the IC50 was under 50 nM.

Take `C/C(Nc1ccn(C(C)(C)C#N)n1)=C1/C(=O)Nc2cnc(-c3c(C)cccc3F)cc21` [Example 142, (Z)-2-(3-((1-(5-(2-Fluoro-6-methylphenyl)-2-oxo-1H-pyrrolo[2,3-c]pyridin-3(2H)-ylidene)ethyl)amino)-1H-pyrazol-1-yl)-2-methylpropanenitrile]: the inhibition at 1 µM was found to be 77.9%, the inhibition at 10 µM turned out to be 80.8% and the IC50 was under 50 nM.

As for `C/C(Nc1ccn(C(C)C)n1)=C1/C(=O)Nc2cnc(-c3cnccc3C)cc21` [Example 99, (Z)-3-(1-((1-Isopropyl-1H-pyrazol-3-yl)amino)ethylidene)-5-(4-methylpyridin-3-yl)-1H-pyrrolo[2,3-c]pyridin-2(3H)-one], the inhibition at 1 µM worked out at 70.1%, the inhibition at 10 µM stood at 78.6% and the IC50 was 50 to 100 nM.

In the case of `C/C(Nc1ccn(C(C)C#N)n1)=C1/C(=O)Nc2cnc(-c3cnccc3C)cc21` (stereo in doubt) [Example 116], the inhibition at 1 µM is 75.9% and the IC50 is under 50 nM.
